Values quoted from earlier work in patent US8008021B2, “N-terminal truncation of cardiac troponin subunits and their roles in cardiovascular disease” (Evanston Northwestern Healthcare, priority 2006, dated 2011).

Biological target: T1, μ-calpain (Homo sapiens, UniProt P07384)
T1 sequence (P07384 1-714): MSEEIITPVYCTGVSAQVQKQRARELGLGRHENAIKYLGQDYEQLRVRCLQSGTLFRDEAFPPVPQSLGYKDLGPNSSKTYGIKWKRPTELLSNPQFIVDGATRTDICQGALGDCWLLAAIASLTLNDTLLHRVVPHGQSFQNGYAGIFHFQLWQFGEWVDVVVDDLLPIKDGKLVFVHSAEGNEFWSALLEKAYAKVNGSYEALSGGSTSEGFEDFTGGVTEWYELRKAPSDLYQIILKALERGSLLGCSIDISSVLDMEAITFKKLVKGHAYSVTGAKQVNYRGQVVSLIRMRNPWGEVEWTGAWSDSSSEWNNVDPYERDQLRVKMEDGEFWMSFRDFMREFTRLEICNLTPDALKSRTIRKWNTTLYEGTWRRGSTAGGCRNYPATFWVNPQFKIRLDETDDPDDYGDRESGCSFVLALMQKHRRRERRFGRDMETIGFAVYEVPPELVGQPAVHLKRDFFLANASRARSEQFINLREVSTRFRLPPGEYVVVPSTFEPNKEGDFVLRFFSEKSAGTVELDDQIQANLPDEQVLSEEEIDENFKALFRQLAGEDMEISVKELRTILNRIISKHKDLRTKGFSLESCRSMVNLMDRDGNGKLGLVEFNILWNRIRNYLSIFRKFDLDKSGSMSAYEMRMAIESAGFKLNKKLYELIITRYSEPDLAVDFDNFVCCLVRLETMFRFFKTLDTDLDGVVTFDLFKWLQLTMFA
T1 sequence (P04632 1-268 partner): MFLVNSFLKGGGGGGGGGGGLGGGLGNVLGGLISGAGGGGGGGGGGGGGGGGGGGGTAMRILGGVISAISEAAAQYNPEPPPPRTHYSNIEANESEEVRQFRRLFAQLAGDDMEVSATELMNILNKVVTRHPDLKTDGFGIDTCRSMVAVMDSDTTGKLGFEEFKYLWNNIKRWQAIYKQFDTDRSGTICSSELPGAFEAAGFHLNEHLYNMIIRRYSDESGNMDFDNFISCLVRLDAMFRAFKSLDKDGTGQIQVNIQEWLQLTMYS
Conditions: reference 43, cited from earlier work; for Ki: read-out: apparent inhibition constant Ki against μ-calpain

| Compound | Ki | selectivity for μ-calpain over m-calpain |
| --- | --- | --- |
| O=C(O)/C(S)=C/c1ccc(I)cc1 [PD150606] | 210 ± 10 nM |  |
| O=C(O)/C(S)=C/c1c[nH]c2ccc(F)cc12 [PD151746] | 260 ± 30 nM | 20 fold |
